Reference: paper PMC11842024, “Reversible male contraception by targeted inhibition of serine/threonine kinase 33” (Science (New York, N.Y.), 2024)

Assays:
AAK1 = target: T1, AAK1 (Homo sapiens, UniProt Q2M2I8); test: NanoBRET K192 assay (Promega); format: cell-based; conditions: HEK293 cells
T1 construct: against 192 full-length protein kinases in human embryonic kidney 293 (HEK293) cells; host or cells: HEK293
Experimental: (§1) NanoBRET Target Engagement K192 assay. HEK293 cells (ATCC) were cultured in DMEM (Gibco) + 10% FBS (Seradigm) and incubated in a humidified 37°C/5% CO2 incubator. The NanoBRET Target Engagement K192 Kinase Selectivity System (Promega) contains 192 unique transfection-ready NanoLuc/Kinase fusions, pre-diluted in either transfection carrier DNA or relevant cyclin DNA. These NanoLuc/Kinase fusion constructs were transfected into HEK293 cells using Fugene HD (Promega) according to the manufacturer’s protocol. Briefly, 10 µL of a 20 µg/mL DNA solution was added to white, TC-treated 96-well assay plates (Corning), followed by 30 µL of a diluted Fugene HD solution (20 µL Fugene/1 mL Opti-MEM). After transfection complex formation, HEK293 cells were resuspended at 3.3 × 105 c/mL in Opti-MEM + 1% FBS and added at a volume of 60 µL per well, to result in approximately 20000 cells/well. Cells were incubated in a humidified 37°C/5% CO2 incubator for 20 hours. Tracer K-10 (Promega) was prepared at a 100× concentration in DMSO (Sigma) and diluted to a working concentration of 10× in tracer dilution buffer (12.5 mM HEPES, 31.25% PEG400, pH 7.5) (Promega). Test compounds were prepared as concentrated stock solutions in DMSO and diluted in Opti-MEM to prepare 10× working stocks. Cells were equilibrated with test compounds and Tracer K-10 for 2 hours prior to BRET measurements. For target engagement analysis, Tracer K-10 was added to cells at one of 4 […]
(§2) manufacturer’s protocol. To measure BRET, NanoBRET NanoGlo Substrate and Extracellular NanoLuc Inhibitor (Promega) were added according to the manufacturer’s protocol, and filtered luminescence was measured on a GloMax Discover luminometer equipped with 450 nm BP filter (donor) and 600 nm LP filter (acceptor), using 0.5 s integration time. Milli-BRET units are calculated by multiplying the raw BRET units by 1000.
(§3) For Fractional Occupancy determination, the following equation was used:
(§4) % Occupancy = [1-(X-Z)/(Y-Z)]×100
(§5) Where X = BRET in the presence of the test compound and Tracer K10, Y = BRET in the presence of Tracer K10 only, and Z = Full occupancy, or BRET in the absence of the test compound and […]
(§6) Tracer K10. […]

BMP2K = target: T2, BMP2K (Homo sapiens, UniProt Q9NSY1); test: NanoBRET K192 assay (Promega); format: cell-based; conditions: HEK293 cells
T2 construct: against 192 full-length protein kinases in human embryonic kidney 293 (HEK293) cells; host or cells: HEK293
Experimental: as §1, §2, §3, §4, §5, §6

CSNK1G2 = target: T3, CSNK1G2 (Homo sapiens, UniProt P78368); test: NanoBRET K192 assay (Promega); format: cell-based; conditions: HEK293 cells
T3 construct: against 192 full-length protein kinases in human embryonic kidney 293 (HEK293) cells; host or cells: HEK293
Experimental: as §1, §2, §3, §4, §5, §6

EPHA1 = target: T4, EPHA1 (Homo sapiens, UniProt P21709); test: NanoBRET K192 assay (Promega); format: cell-based; conditions: HEK293 cells
T4 construct: against 192 full-length protein kinases in human embryonic kidney 293 (HEK293) cells; host or cells: HEK293
Experimental: as §1, §2, §3, §4, §5, §6

FER = target: T5, FER (Homo sapiens, UniProt P16591); test: NanoBRET K192 assay (Promega); format: cell-based; conditions: HEK293 cells
T5 construct: against 192 full-length protein kinases in human embryonic kidney 293 (HEK293) cells; host or cells: HEK293
Experimental: as §1, §2, §3, §4, §5, §6

FLT3 = target: T6, FLT3 (Homo sapiens, UniProt P36888); test: NanoBRET K192 assay (Promega); format: cell-based; conditions: HEK293 cells
T6 construct: against 192 full-length protein kinases in human embryonic kidney 293 (HEK293) cells; host or cells: HEK293
Experimental: as §1, §2, §3, §4, §5, §6

GAK = target: T7, GAK (Homo sapiens, UniProt O14976); test: NanoBRET K192 assay (Promega); format: cell-based; conditions: HEK293 cells
T7 construct: against 192 full-length protein kinases in human embryonic kidney 293 (HEK293) cells; host or cells: HEK293
Experimental: as §1, §2, §3, §4, §5, §6

MAP4K2 = target: T8, MAP4K2 (Homo sapiens, UniProt Q12851); test: NanoBRET K192 assay (Promega); format: cell-based; conditions: HEK293 cells
T8 construct: against 192 full-length protein kinases in human embryonic kidney 293 (HEK293) cells; host or cells: HEK293
Experimental: as §1, §2, §3, §4, §5, §6

NTRK2 = target: T9, NTRK2 (Homo sapiens, UniProt Q16620); test: NanoBRET K192 assay (Promega); format: cell-based; conditions: HEK293 cells
T9 construct: against 192 full-length protein kinases in human embryonic kidney 293 (HEK293) cells; host or cells: HEK293
Experimental: as §1, §2, §3, §4, §5, §6

PHKG1 = target: T10, PHKG1 (Homo sapiens, UniProt Q16816); test: NanoBRET K192 assay (Promega); format: cell-based; conditions: HEK293 cells
T10 construct: against 192 full-length protein kinases in human embryonic kidney 293 (HEK293) cells; host or cells: HEK293
Experimental: as §1, §2, §3, §4, §5, §6

PHKG2 = target: T11, PHKG2 (Homo sapiens, UniProt P15735); test: NanoBRET K192 assay (Promega); format: cell-based; conditions: HEK293 cells
T11 construct: against 192 full-length protein kinases in human embryonic kidney 293 (HEK293) cells; host or cells: HEK293
Experimental: as §1, §2, §3, §4, §5, §6

PTK2 = target: T12, PTK2 (Homo sapiens, UniProt Q05397); test: NanoBRET K192 assay (Promega); format: cell-based; conditions: HEK293 cells
T12 construct: against 192 full-length protein kinases in human embryonic kidney 293 (HEK293) cells; host or cells: HEK293
Experimental: as §1, §2, §3, §4, §5, §6

PTK2B = target: T13, PTK2B (Homo sapiens, UniProt Q14289); test: NanoBRET K192 assay (Promega); format: cell-based; conditions: HEK293 cells
T13 construct: against 192 full-length protein kinases in human embryonic kidney 293 (HEK293) cells; host or cells: HEK293
Experimental: as §1, §2, §3, §4, §5, §6

STK4 = target: T14, STK4 (Homo sapiens, UniProt Q13043); test: NanoBRET K192 assay (Promega); format: cell-based; conditions: HEK293 cells
T14 construct: against 192 full-length protein kinases in human embryonic kidney 293 (HEK293) cells; host or cells: HEK293
Experimental: as §1, §2, §3, §4, §5, §6

CLK1 = CLK1 (Homo sapiens, UniProt P49759); test: Z'-LYTE activity assay (ThermoFisher SelectScreen); format: biochemical; design: purchased SelectScreen Services (ThermoFisher); conditions: [ATP] = Kmapp
Excerpt: (§7) In vitro biochemical assays. Several small molecule assays were outsourced to SelectScreen Services (ThermoFisher) for STK33 and for off-target kinases (data sets are available on demand).
(§8) These assays are LanthaScreen (binding assay) and Z’-LYTE (activity assay). Dose-responses were done with at least 5 different concentrations in duplicates, and parameters were optimized by calculations described below and provided with standard errors. […]
(§9) Calculation of Ki values for kinase inhibitors from Z’-LYTE inhibition data. The Morrison equation with [ATP] = Kmapp for competitive inhibition (GraphPad Prism 7, San Diego, CA) was used to get Ki values. Since Kd and Ki values are defined the same way, in other words, Kd = [E] [I] / [EI] = Ki, Kd and Ki values can be compared. […]

CLK2 = CLK2 (Homo sapiens, UniProt P49760); test: Z'-LYTE activity assay (ThermoFisher SelectScreen); format: biochemical; design: purchased SelectScreen Services (ThermoFisher); conditions: [ATP] = Kmapp
Excerpt: as §7, §8, §9

RET = RET (Homo sapiens, UniProt P07949); test: Z'-LYTE activity assay (ThermoFisher SelectScreen); format: biochemical; design: purchased SelectScreen Services (ThermoFisher); conditions: [ATP] = Kmapp
Excerpt: as §7, §8, §9

T10 sequence (Q16816 whole entry): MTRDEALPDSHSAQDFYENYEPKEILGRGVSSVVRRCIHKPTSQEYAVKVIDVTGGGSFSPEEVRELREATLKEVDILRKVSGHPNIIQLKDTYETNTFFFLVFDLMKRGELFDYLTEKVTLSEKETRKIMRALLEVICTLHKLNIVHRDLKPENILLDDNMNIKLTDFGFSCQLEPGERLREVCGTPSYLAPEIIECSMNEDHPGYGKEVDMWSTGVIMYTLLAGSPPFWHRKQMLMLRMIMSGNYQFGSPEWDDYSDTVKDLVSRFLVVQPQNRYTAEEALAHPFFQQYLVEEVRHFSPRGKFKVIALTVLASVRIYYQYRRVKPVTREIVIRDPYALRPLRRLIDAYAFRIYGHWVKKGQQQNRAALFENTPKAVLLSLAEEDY
CLK1, sequence (P49759 whole entry): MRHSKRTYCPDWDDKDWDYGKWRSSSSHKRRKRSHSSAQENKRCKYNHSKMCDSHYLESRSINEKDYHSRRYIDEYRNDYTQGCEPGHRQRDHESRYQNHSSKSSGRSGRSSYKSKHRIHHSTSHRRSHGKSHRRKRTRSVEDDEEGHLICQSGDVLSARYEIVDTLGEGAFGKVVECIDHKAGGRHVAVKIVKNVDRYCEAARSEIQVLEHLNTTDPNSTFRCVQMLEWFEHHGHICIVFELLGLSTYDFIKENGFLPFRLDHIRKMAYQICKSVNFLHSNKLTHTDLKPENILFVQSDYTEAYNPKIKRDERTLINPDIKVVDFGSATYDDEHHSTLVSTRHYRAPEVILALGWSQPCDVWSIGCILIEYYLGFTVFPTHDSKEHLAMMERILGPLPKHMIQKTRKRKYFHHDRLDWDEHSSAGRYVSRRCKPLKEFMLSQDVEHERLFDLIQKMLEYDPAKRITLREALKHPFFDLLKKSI
CLK2, sequence (P49760 whole entry): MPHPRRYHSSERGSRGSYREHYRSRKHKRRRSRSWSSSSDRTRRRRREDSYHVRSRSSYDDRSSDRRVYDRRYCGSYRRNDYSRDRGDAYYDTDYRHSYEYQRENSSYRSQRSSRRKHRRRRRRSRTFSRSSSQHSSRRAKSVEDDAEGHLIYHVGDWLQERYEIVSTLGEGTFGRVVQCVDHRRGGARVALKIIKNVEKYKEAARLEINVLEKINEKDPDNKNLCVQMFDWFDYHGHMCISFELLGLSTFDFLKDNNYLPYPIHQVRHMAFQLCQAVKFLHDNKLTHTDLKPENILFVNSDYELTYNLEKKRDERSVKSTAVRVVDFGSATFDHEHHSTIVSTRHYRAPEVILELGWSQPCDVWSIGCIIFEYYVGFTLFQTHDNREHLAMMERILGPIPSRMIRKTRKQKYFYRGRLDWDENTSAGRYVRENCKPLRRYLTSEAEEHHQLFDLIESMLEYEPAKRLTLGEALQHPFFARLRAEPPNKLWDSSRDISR
T5 sequence (P16591 whole entry): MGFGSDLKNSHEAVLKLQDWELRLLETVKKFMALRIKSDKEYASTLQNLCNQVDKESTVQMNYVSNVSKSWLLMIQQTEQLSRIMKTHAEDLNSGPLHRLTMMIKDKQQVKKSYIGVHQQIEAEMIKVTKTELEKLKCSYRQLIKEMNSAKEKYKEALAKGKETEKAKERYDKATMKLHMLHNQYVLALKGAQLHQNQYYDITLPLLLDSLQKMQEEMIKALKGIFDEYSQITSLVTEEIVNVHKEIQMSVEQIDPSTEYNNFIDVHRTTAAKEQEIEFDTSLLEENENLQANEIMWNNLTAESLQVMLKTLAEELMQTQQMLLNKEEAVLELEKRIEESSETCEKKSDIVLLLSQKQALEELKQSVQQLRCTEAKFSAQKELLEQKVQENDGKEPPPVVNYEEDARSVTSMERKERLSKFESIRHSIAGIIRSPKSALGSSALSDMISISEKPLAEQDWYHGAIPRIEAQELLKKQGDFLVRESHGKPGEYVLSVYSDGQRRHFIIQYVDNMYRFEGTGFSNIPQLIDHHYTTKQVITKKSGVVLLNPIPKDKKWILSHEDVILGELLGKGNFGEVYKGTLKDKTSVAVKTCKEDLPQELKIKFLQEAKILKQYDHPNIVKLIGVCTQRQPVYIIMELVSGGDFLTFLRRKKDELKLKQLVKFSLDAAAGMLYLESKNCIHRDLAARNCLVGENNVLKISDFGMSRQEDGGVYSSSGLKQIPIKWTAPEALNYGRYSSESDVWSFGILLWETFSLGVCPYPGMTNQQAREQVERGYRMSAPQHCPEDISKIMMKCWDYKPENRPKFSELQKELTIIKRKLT
RET, sequence (P07949 29-1114): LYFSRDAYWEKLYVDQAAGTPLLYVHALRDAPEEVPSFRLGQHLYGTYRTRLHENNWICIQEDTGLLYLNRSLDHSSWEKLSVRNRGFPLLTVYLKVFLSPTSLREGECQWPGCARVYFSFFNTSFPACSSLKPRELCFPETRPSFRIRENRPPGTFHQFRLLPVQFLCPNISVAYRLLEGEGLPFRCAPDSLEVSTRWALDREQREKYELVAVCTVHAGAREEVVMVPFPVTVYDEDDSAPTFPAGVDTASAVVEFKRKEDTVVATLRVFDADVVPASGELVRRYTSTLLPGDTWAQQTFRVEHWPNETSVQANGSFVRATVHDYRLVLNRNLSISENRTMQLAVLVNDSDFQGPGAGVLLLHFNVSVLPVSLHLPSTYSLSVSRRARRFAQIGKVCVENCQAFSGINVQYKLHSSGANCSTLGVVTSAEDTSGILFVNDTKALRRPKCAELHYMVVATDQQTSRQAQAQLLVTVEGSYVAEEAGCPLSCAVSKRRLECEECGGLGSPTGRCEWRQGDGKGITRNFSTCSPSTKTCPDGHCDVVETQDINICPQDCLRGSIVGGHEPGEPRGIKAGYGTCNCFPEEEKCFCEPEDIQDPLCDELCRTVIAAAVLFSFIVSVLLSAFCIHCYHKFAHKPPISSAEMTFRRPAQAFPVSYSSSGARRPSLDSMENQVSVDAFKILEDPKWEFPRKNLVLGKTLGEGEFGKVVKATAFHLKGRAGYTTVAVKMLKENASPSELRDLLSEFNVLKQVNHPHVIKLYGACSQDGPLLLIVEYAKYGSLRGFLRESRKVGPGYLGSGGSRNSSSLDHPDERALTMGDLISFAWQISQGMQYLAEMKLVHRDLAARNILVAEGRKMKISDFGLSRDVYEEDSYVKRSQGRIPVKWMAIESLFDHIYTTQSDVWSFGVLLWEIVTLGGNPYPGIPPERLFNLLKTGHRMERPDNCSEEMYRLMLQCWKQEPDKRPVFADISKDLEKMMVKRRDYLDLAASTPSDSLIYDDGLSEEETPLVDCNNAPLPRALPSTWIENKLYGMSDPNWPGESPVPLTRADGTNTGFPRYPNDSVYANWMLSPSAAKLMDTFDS
T3 sequence (P78368 whole entry): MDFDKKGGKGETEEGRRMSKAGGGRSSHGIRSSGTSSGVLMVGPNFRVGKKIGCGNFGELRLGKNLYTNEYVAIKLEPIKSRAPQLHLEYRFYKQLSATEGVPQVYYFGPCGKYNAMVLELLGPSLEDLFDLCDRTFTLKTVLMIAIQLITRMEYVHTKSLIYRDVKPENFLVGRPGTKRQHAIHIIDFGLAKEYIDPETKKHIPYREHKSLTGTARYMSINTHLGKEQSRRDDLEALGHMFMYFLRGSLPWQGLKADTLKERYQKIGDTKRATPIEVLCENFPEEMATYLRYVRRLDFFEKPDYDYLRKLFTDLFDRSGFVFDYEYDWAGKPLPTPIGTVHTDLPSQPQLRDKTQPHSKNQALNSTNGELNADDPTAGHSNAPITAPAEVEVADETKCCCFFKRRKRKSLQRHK
T14 sequence (Q13043 whole entry): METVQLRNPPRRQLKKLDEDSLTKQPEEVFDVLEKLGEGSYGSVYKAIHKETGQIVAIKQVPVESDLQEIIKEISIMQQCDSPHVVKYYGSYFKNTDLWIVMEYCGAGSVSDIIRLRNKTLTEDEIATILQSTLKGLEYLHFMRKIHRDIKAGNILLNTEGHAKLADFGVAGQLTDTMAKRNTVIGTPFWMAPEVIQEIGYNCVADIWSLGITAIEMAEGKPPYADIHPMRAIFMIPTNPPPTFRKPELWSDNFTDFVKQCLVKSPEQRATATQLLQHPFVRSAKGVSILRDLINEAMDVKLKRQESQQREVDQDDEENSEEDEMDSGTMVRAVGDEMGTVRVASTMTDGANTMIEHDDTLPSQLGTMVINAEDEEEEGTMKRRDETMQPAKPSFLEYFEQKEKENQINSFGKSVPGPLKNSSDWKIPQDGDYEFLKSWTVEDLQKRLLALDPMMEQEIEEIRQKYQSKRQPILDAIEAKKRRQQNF
T8 sequence (Q12851 whole entry): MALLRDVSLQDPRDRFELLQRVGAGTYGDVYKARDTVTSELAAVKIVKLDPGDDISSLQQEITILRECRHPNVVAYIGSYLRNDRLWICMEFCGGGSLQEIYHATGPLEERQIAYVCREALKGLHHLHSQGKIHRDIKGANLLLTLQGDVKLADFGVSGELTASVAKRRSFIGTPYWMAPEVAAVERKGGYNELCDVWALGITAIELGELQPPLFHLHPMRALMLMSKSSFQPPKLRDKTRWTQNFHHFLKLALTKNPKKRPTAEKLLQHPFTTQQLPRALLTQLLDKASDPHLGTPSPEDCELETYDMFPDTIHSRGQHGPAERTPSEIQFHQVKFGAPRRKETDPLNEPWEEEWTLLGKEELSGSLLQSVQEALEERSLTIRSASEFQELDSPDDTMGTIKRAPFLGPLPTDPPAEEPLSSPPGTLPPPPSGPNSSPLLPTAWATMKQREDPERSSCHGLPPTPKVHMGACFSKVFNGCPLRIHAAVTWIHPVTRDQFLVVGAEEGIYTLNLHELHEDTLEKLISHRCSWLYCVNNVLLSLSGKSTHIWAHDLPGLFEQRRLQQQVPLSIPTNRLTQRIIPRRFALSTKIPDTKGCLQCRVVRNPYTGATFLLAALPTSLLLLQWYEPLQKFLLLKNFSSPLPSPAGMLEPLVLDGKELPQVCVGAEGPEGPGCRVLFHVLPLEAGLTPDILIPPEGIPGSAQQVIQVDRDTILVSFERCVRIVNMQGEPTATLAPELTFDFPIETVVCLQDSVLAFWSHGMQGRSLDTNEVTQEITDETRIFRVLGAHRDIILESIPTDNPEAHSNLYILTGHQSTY

Which results are given for `O=C(c1ccc2[nH]nc(C#Cc3ccccc3-c3ccccc3)c2c1)N1CC2(CCCNC2)C1` [CDD-2807]?
receptor occupancy at 1 µM (AAK1): 56.4 ± 1.3%; receptor occupancy at 1 µM (BMP2K): 54.5 ± 0.3%; receptor occupancy at 1 µM (CSNK1G2): 32.4 ± 1.3%; receptor occupancy at 1 µM (EPHA1): 30.6 ± 2.4%; receptor occupancy at 1 µM (FER): 38 ± 1.2%; receptor occupancy at 1 µM (FLT3): 30.3 ± 2.6%; receptor occupancy at 1 µM (GAK): 57.4 ± 0.1%; receptor occupancy at 1 µM (MAP4K2): 40 ± 0.6%; receptor occupancy at 1 µM (NTRK2): 44.5%; receptor occupancy at 1 µM (PHKG1): 58.4 ± 2.9%; receptor occupancy at 1 µM (PHKG2): 59.2 ± 1.2%; receptor occupancy at 1 µM (PTK2): 76.5 ± 0.2%; receptor occupancy at 1 µM (PTK2B): 45.2 ± 0.2%; receptor occupancy at 1 µM (STK4): 30.3 ± 0.4%; Ki (CLK1): 3.1 nM; Ki (CLK2): 1.3 nM; Ki (RET): 0.3 nM
